Results on 3 compounds are retold here after patent US10870634B2, “Histone demethylase inhibitors” (CELGENE QUANTICEL RESEARCH, INC., priority 2016, dated 2020).

The structures appear in SMILES notation.

One may read the IC50 as the point on the concentration scale where inhibition reaches its midpoint. Low readings indicate higher potency, high ones lower potency.

The target in assay [1] is T1, JMJD2C (Homo sapiens, UniProt Q9H3R0).
T1 construct: purchased BPS Bioscience 50105
T1 sequence (Q9H3R0 2-372): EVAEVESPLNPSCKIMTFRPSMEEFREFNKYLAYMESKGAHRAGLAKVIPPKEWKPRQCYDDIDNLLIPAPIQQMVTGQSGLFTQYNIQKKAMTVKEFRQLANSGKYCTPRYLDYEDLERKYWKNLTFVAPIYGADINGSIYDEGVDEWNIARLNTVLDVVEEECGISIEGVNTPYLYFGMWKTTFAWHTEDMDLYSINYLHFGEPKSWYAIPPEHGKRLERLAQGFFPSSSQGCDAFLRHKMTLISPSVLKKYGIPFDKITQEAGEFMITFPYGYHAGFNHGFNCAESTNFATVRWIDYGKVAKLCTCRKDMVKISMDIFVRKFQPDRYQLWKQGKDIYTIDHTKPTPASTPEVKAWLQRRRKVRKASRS
Nature of the assay: JMJD2C in vitro enzyme inhibition assay (TR-FRET). It counts as biochemical. To be noted: 0.3 nM JMJD2C, 300 nM H3K9me3-biotin peptide, 2 μM alpha-ketoglutaric acid. From the text: (§1) This assay determines the ability of a test compound to inhibit Jarid1B, JMJD2C and JMJD3 demethylase activity. Baculovirus-expressed Jarid1B (GenBank Accession # NM-006618, AA 2-751) was purchased from BPS Bioscience (Cat #50121) or custom made by MolecularThroughput. Baculovirus-expressed JMJD2C (GenBank Accession # BC143571, AA 2-372) was purchased from BPS Bioscience (Cat #50105). Baculovirus-expressed JMJD3 (GenBank Accession # NM_001080424, AA1043-end) was purchased from BPS Bioscience (Cat #50115).
The ability of test compounds to inhibit the activity of JMJD2C was determined in 384-well plate format under the following reaction conditions: 0.3 nM JMJD2C, 300 nM H3K9me3-biotin labeled peptide (Anaspec cat #464360), 2 μM alpha-ketoglutaric acid in assay buffer of 50 mM HEPES, pH 7.3, 0.005% Brij35, 0.5 mM TCEP, 0.2 mg/ml BSA, 50 μM sodium L-ascorbate, and 2 μM ammonium ironll sulfate. Reaction product was determined quantitatively by TR-FRET after the addition of detection reagent Phycolink Streptavidin-allophycocyanin (Prozyme) and Europium-anti-di-methylated histone H3 lysine 9 (H3K9me2) antibody (PerkinElmer) in the presence of 5 mM EDTA in LANCE detection buffer (PerkinElmer) at a final concentration of 50 nM and 1 nM, respectively.
The assay reaction was initiated by the following: 2 μl of the mixture of 900 nM H3K9me3-biotin labeled peptide and 6 μM alpha-ketoglutaric acid with 2 μl of 11-point serial diluted inhibitor in 3% DMSO were added to each well of the plate, followed by the addition of 2 μl of 0.9 nM JMJD2C to initiate the reaction. […] Plates were read by EnVisionMultilabel Reader in TR-FRET mode (excitation at 320 nm, emission at 615 nm and 665 nm) after 1 hr incubation at RT. A ratio was calculated (665/615) for each well and fitted to determine inhibition constant (IC50).
(§2) The ability to inhibit demethylase activity was quantified and the respective IC50 value was determined for substituted triazolylpyridine derivative compounds. […]
On the technique in general: TR-FRET usually uses a lanthanide donor and a delayed reading to cut background.

Assay [2] concerns the target T2, JMJD3 (Homo sapiens, UniProt O15054).
T2 construct: purchased BPS Bioscience 50115
Nature of the assay: JMJD3 in vitro enzyme inhibition assay (AlphaScreen). It counts as biochemical. The conditions noted are these: 1 nM JMJD3, 250 nM H3K27me3-biotin peptide, 1 μM alpha-ketoglutaric acid.
Excerpt: as §1
The ability of test compounds to inhibit the activity of JMJD3 was determined in 384-well plate format under the following reaction conditions: 1 nM JMJD3, 250 nM H3K27me3-biotin labeled peptide (Anaspec cat #64367), 1 μM alpha-ketoglutaric acid in assay buffer of 50 mM HEPES, pH 7.3, 0.005% Brij35, 0.5 mM TCEP, 0.2 mg/ml BSA, 50 μM sodium L-ascorbate, 5 μM ammonium ironII sulfate. Reaction product is determined quantitatively by AlphaScreen detection after the addition of detection reagents anti-H3K27me1 antibody, 5 μg/ml AlphaScreen® Streptavidin-coated Donor beads, and 5 μg/ml. AlphaScreen® Protein A Acceptor beads in 50 mM HEPES, pH 7.3, 10 mM NaCl, 0.005% Brij35, 10 mM :EDTA, 2 mg/ml BSA.
The assay reaction was initiated by the following: 3 μl of the mixture of 750 nM H3K27me3-biotin labeled peptide and 3 μM alpha-ketoglutaric acid with 3 μl of 11-point serial diluted inhibitor in 3% DMSO are added to each well of 384-well Proxiplate (Perkin Elmer), followed by the addition of 3 μl of 3 nM JMJD3 to initiate the reaction. The reaction mixture was incubated at room temp for 20 min, and terminated by the addition of 3 μl of appropriate dilution of anti-H3K27me1 antibody in 50 mM HEPES, pH 7.3, 10 mM NaCl, 0.005% Brij35, 10 mM EDTA, 2 mg/ml BSA. […] Plates were read by EnVision Multilabel Reader in AlphaScreen mode after minimum 2 hr incubation at room temp. […]
as §2
(In general: Alpha assays give light when donor and acceptor beads are brought close together.)

T2 sequence (O15054 1043-1682 isoform O15054-1): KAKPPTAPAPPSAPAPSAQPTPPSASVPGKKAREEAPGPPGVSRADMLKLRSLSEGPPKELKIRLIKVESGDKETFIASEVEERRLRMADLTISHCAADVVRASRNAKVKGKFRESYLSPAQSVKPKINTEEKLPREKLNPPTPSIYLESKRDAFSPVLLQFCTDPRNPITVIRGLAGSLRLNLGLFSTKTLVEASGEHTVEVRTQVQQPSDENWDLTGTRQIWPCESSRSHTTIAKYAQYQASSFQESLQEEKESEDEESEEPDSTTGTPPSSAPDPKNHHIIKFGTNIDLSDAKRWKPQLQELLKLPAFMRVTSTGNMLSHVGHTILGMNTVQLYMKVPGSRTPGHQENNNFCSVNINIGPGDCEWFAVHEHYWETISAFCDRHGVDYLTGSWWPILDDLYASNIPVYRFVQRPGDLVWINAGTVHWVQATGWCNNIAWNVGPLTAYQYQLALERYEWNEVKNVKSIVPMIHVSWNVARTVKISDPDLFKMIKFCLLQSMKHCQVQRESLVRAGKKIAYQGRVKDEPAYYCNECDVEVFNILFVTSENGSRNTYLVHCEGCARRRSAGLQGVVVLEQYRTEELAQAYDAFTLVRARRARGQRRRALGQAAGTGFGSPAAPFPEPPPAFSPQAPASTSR

In the case of `Fc1cnccc1-c1nn[nH]c1C(F)(F)F` [Example 1, 3-fluoro-4-[5-(trifluoromethyl)-1H-1,2,3-triazol-4-yl]pyridine], the IC50 in assay [1] and in assay [2] was greater than 10 µM throughout.

`Fc1ccc(Cl)cc1Nc1cnccc1-c1nn[nH]c1C(F)(F)F` [Example 2, N-(5-chloro-2-fluorophenyl)-4-[5-(trifluoromethyl)-1H-1,2,3-triazol-4-yl]pyridin-3-amine]: the IC50 in assay [1] and in assay [2] was greater than 10 µM in each case.

For the compound `FC(F)(F)c1[nH]nnc1-c1ccncc1NCC1CCCc2ccccc21` (stereo not drawn) [Example 3, N-[(1,2,3,4-tetrahydronaphthalen-1-yl)methyl]-4-[5-(trifluoromethyl)-1H-1,2,3-triazol-4-yl]pyridine-3-amine], the half-maximal inhibitory concentration (IC50) in assay [1] and in assay [2] was greater than 10 µM throughout.
